Measured values as given in patent US11008577B1 (priority 2017, dated 2021).
Where a SMILES comes first, the peptide text is derived from it. Bridges are numbered along the chain shown (N, C = ends). [ ]: non-standard residue; d: D form. The star is where a group is joined. Ileψ(thiazoline)Cys = CC[C@H](C)[C@H](N)C1=N[C@H](C(=O)*)CS1; dOrn = NCCC[C@@H](N)C(=O)O

What was measured:
high-lipid (HL) mutants = assay: Chemical sensitivity analysis, high-lipid mutants vs parent strain; type: cell-based, Rhodobacter sphaeroides; conditions: all HL mutants; 96-well plates, 30° C., 48 hours, OD 595 nm, normalized to DMSO control and parent strain; conc. per Table 4B
HLM01, HLM02 and HLM05 = assay: Chemical sensitivity analysis, Cluster A strains; type: cell-based, Rhodobacter sphaeroides; conditions: 48 hours, OD 595 nm, conc. per Table 4B
HLM04 and HLM07 = assay: Chemical sensitivity analysis, Cluster B strains; type: cell-based, Rhodobacter sphaeroides; conditions: 48 hours, OD 595 nm, conc. per Table 4B
Description: (§1) Selected compounds (Tables 4A and 4B) were tested for their effects on growth of the parent strain to determine the highest doses that cause <30% growth reduction. Parent and high-lipid mutant strains were grown in the presence of the chemicals, or DMSO as a control, in 96-well plates at 30° C. with shaking for 48 hours. Final ODs were read at 595 nm on an Infinite® F500 microplate reader (Tecan). For each strain, final ODs for each drug treatment were first divided by the OD of the DMSO control for that strain to determine relative cell growth, and then the growth value for each treated culture was normalized by the parent strain growth under the same condition.

HLM03 = conditions: 48 hours, OD 595 nm, conc. per Table 4B
Description: as §1

neomycin was tested, and the “growth of the high-lipid mutants compared to the parent strain (relative fitness)” value (high-lipid (HL) mutants) was “no growth difference”.

In the case of `CC[C@H]1OC(=O)[C@H](C)[C@@H](O[C@H]2C[C@@](C)(OC)[C@@H](O)[C@H](C)O2)[C@H](C)[C@@H](O[C@@H]2O[C@H](C)C[C@H](N(C)C)[C@H]2O)[C@](C)(O)C[C@@H](C)C(=O)[C@H](C)[C@@H](O)[C@]1(C)O` [erythromycin], the “sensitivity compared to the parent strain (relative growth, cluster * in FIG. 3)” value (HLM01, HLM02 and HLM05) is reported as “sensitive”.

`CO/N=C(\C(=O)N[C@@H]1C(=O)N2C(C(=O)O)=C(CSc3nc(=O)c(=O)[nH]n3C)CS[C@H]12)c1csc(N)n1` [ceftriaxone] was tested, and the “sensitivity compared to the parent strain (relative growth, cluster ** in FIG. 3)” value (HLM04 and HLM07) was “increased sensitivity”.

With `OO` [hydrogen peroxide] the “sensitivity compared to the parent strain (relative growth)” value (HLM03) was “increased sensitivity”.

In the case of `CC[C@H]1OC(=O)[C@H](C)[C@@H](O[C@H]2C[C@@](C)(OC)[C@@H](O)[C@H](C)O2)[C@H](C)[C@@H](O[C@@H]2O[C@H](C)C[C@H](N(C)C)[C@H]2O)[C@](C)(OC)C[C@@H](C)C(=O)[C@H](C)[C@@H](O)[C@]1(C)O` [clarithromycin], the “sensitivity compared to the parent strain (relative growth, cluster * in FIG. 3)” value (HLM01, HLM02 and HLM05) is reported as “sensitive”.

With `CO[C@H]1/C=C/O[C@@]2(C)Oc3c(C)c(O)c4c(O)c(c5c(nc6cc(C)ccn65)c4c3C2=O)NC(=O)/C(C)=C\C=C\[C@H](C)[C@H](O)[C@@H](C)[C@@H](O)[C@@H](C)[C@H](OC(C)=O)[C@@H]1C` [rifaximin] the “sensitivity compared to the parent strain (relative growth, cluster * in FIG. 3)” value (HLM01, HLM02 and HLM05) was “sensitive”.

For `CC[C@H](C)[C@H](N)C1=N[C@H](C(=O)N[C@@H](CC(C)C)C(=O)N[C@H](CCC(=O)O)C(=O)N[C@H](C(=O)N[C@H]2CCCCNC(=O)[C@H](CC(N)=O)NC(=O)[C@@H](CC(=O)O)NC(=O)[C@H](Cc3cnc[nH]3)NC(=O)[C@@H](Cc3ccccc3)NC(=O)[C@H]([C@@H](C)CC)NC(=O)[C@@H](CCCN)NC2=O)[C@@H](C)CC)CS1` [bacitracin] ({Ileψ(thiazoline)Cys}-L[dE]IK[dOrn]I[dF]H[dD]N; lactam 4-C), the “sensitivity compared to the parent strain (relative growth, cluster ** in FIG. 3)” value (HLM04 and HLM07) was “increased sensitivity”.

With `CCCCCCCCCCCCOS(=O)(=O)[O-].[Na+]` [SDS, sodium dodecyl sulfate] the “growth of the high-lipid mutants compared to the parent strain (relative fitness)” value (high-lipid (HL) mutants) was “many or all of the high-lipid mutants showed increased sensitivity”.
